This is an account of results in article PMC4004252 (Journal of the American Chemical Society, 2014).

One test has as its system ctDNA. The test can be described thus: ctDNA absorption spectroscopy titration of ethidium bromide. The test is classed as binding, calf. Conditions: value for EB in main text.
Test [1] addresses T1, Top1 (Homo sapiens, UniProt P11387).
T1 sequence (P11387 1-765): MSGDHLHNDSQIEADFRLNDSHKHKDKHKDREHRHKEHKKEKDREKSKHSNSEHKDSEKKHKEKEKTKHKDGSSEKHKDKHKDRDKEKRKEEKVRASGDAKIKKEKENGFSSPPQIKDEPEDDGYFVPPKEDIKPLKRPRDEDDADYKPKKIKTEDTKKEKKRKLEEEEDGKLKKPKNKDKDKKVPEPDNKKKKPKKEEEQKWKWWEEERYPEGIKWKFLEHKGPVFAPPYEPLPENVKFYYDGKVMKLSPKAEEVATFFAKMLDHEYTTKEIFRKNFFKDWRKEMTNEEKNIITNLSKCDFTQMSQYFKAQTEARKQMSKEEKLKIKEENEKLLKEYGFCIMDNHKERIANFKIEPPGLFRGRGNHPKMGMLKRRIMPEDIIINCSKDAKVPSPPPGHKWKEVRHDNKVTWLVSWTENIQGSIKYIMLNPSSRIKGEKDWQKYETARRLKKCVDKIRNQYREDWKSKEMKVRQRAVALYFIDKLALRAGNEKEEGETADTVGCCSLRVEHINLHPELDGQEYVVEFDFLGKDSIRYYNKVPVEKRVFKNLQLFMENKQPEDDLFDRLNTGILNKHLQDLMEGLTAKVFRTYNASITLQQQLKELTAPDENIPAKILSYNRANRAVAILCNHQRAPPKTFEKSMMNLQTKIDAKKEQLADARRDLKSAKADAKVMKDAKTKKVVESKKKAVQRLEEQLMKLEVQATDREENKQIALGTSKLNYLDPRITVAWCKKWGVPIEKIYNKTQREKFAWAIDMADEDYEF
The format is biochemical.

Test [2] relates to relaxed pHOT1 plasmid DNA. The test can be described thus: DNA unwinding assay, relaxed pHOT1 as substrate. The test is classed as biochemical. The note with it: 10 units Top1, 37 °C.
For test [3], the target named is T1, Top1. The test is described as follows: Standard Top1 scDNA relaxation assay. The format is biochemical.

Consider `CC[n+]1c(-c2ccccc2)c2cc(N)ccc2c2ccc(N)cc21` [EB, ethidium bromide], for which, in the test with ctDNA, the “KA, ctDNA affinity constant” value is reported as 5(1) × 10^6 M^–1 bp. Turning to `O=C1c2c(O)ccc(O)c2C(=O)c2c(NCCNCCO)ccc(NCCNCCO)c21` [MTX, mitoxantrone], at Top1 [1], the “dose at which switch to catalytic inhibition of Top1 occurs” value was in the range of 1 to 10 µM. Moreover, the “PicoGreen relative fluorescence readout” value at Top1 [1] (doses of 0.1 and 1 μM) is listed as “positive”.

Take `COc1cc(NS(C)(=O)=O)ccc1Nc1c2ccccc2nc2ccccc12` [m-AMSA, 4′-(9-acridinylamino)methanesulfon-m-anisidide]: the “concentration giving the Gaussian distribution of DNA topoisomers” value in test [2] turned out to be 50 µM. For the same molecule, the “dose giving complete inhibition of the enzyme” value at Top1 [3] worked out at 50 µM.
